Data: patent US20240116985A1, “STAPLED PEPTIDES AND METHODS THEREOF” (priority 2020, published 2024)
Values after ≈ are worked out from the molar mass of the structure shown. Where two headings read alike, the source gives them in different places.

Experiments:
CHI Log D procedure = type: physicochemical
[1] = biological target: T1, full-length beta-Catenin (Uniprot ID P35222) (Homo sapiens, UniProt P35222); assay: Fluorescence polarization IC50 (beta-catenin / 5FAM-TCF4 10-53 competition); type: binding
T1 construct: 10 nM full-length beta-Catenin (Uniprot ID P35222)
T1 sequence (P35222 1-781): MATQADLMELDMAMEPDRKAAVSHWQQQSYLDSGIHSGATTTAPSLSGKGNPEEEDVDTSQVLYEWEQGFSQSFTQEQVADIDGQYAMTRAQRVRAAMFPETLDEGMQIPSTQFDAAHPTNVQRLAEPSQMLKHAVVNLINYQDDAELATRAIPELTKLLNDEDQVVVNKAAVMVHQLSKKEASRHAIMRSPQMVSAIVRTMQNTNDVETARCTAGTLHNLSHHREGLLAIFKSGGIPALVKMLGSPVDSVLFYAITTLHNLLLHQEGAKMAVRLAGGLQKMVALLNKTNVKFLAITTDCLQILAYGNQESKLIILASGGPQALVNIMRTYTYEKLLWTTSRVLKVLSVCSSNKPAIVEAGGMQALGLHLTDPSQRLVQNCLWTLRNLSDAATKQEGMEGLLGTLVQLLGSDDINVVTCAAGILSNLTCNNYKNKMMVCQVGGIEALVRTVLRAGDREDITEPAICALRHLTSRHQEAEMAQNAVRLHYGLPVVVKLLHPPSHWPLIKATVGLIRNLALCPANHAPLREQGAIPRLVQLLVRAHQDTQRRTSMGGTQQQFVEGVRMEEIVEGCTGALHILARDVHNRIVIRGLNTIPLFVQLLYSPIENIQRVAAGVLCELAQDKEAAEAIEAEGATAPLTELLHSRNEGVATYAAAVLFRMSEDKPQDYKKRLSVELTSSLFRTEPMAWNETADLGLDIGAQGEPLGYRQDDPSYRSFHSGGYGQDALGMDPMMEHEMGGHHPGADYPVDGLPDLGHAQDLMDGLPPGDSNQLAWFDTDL

Solubility in PBS = type: physicochemical
Outline: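 Steps: ultracentrifuge the peptide PBS solution, inject the supernatant on HPLC, inject a 50 μM peptide DMSO solution as reference, then calculate solubility as area ratio (PBS/DMSO) × 50 uM.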

[2] = fluorescence polarization, beta-catenin, read-out: FP EC50
[3] = fluorescence polarization, read-out: beta-Catenin FP IC50

Structure (SMILES) | CHI Log D (CHI Log D procedure; pH 7.4) | IC50 ([1]; read-out: beta-Catenin FP IC50) | Solubility (Solubility in PBS) | IC50 [1, 3] | IC50 ([1]; read-out: FP EC50) | chromatographic logD (CHI Log D procedure; pH 7.4, CHI Log D) | also measured
CC(=O)N1CCC[C@]12CC=CCCCC1(CCCC=CCCCCCC[C@@](C)(C(=O)N[C@@H](Cc3ccccc3)C(=O)N[C@@H](Cc3csc4ccccc34)C(=O)N[C@@H](CCC(N)=O)C(N)=O)NC(=O)[C@H]([C@@H](C)O)NC(=O)[C@H](Cc3ccccc3)NC(=O)[C@H](C)NC(=O)[C@H](C)NC(=O)[C@H](CCC(=O)O)NC(=O)[C@H](CC(=O)O)NC1=O)NC(=O)[C@H](CC(C)C)NC(=O)[C@H](CC(=O)O)NC2=O (stereo partly drawn) [I-623, Ac-PL3-Asp-Leu-B5-Asp-Glu-Ala-Ala-Phe-Thr-S8-Phe-BztA-Gln-NH2] | 2.494 | – | 44 µM (≈ 81.7 µg/mL) | 103 nM | 103 nM | – | –
CC(=O)N1CCC[C@]12CC=CCCCC1(CCCC=CCCCCCC[C@@](C)(C(=O)N[C@@H](Cc3ccccc3)C(=O)N[C@@H](Cc3csc4ccccc34)C(=O)N[C@@H](CCC(N)=O)C(N)=O)NC(=O)[C@H](C(C)C)NC(=O)[C@H](Cc3ccccc3)NC(=O)[C@H](C)NC(=O)[C@H](C)NC(=O)[C@H](CC(=O)O)NC(=O)[C@H](CC(=O)NC3CC3)NC1=O)NC(=O)[C@H](C)NC(=O)[C@H](CC(=O)O)NC2=O (stereo partly drawn) [I-538, Ac-PL3-Asp-Ala-B5-[NHCyPr]AsnR-Asp-Ala-Ala-Phe-Val-S8-Phe-BztA-Gln-NH2] | – | – | – | 5000 nM | – | 2.75 | Solubility (Solubility in PBS; Solubility (uM)): 33 µM (≈ 60.6 µg/mL)
CC[C@H](C)[C@@H]1NC(=O)[C@H](CC(=O)O)NC(=O)[C@]2(CC=CCCCC3(CCCC=CCCCCCC[C@@](C)(C(=O)N[C@@H](Cc4ccsc4)C(=O)N[C@@H](Cc4csc5ccccc45)C(=O)N[C@@H](Cc4c[nH]cn4)C(N)=O)NC(=O)[C@H](CC(N)=O)NC(=O)[C@H](Cc4ccccc4)NC(=O)[C@H](C)NC(=O)[C@H](C)NC(=O)[C@H](CC(=O)O)NC(=O)[C@H](CC(=O)O)NC3=O)NC1=O)CCCN2C(C)=O (stereo partly drawn) [I-556, Ac-PL3-Asp-Ile-B5-Asp-Asp-Ala-Ala-Phe-Asn-S8-3Thi-BztA-His-NH2] | 2.435 | – | 39 µM (≈ 72.9 µg/mL) | 20 nM | 20 nM | – | –
CC(=O)N1CCC[C@]12CC=CCCCC1(CCCC=CCCCCCC[C@@](C)(C(=O)N[C@@H](Cc3ccc(C)cc3)C(=O)N[C@@H](Cc3csc4ccccc34)C(=O)N[C@@H](CCC(N)=O)C(N)=O)NC(=O)[C@H](C)NC(=O)[C@H](Cc3ccccc3)NC(=O)[C@H](C)NC(=O)[C@H](C)NC(=O)[C@H](CC(=O)O)NC(=O)[C@H](CC(=O)O)NC1=O)NC(=O)[C@H](C)NC(=O)[C@H](CC(=O)O)NC2=O (stereo partly drawn) [I-369, Ac-PL3-Asp-Ala-B5-Asp-Asp-Ala-Ala-Phe-Ala-S8-4MeF-BztA-Gln-NH2] | – | – | – | – | – | 1.66 | IC50 ([1]; Table E2-1, read-out: beta-Catenin FP IC50): 2310 nM; Solubility (Solubility in PBS; Solubility (uM)): 40 µM (≈ 71.4 µg/mL)
CC(=O)N1CCC[C@]12CC=CCCCC1(CCCC=CCCCOC(=O)N3CC[C@@](C(=O)N[C@@H](Cc4ccsc4)C(=O)N[C@@H](Cc4csc5ccccc45)C(=O)N[C@@H](CCCCNC(=O)CN=[N+]=[N-])C(N)=O)(C3)NC(=O)[C@H](CC(N)=O)NC(=O)[C@H](Cc3ccccc3)NC(=O)[C@H](C)NC(=O)[C@H](C)NC(=O)[C@H](CC(=O)O)NC(=O)[C@H](CC(=O)O)NC1=O)NC(=O)[C@H](CC(C)(C)C)NC(=O)[C@H](CC(=O)O)NC2=O (stereo partly drawn) [I-878, Ac-PL3-Asp-Npg-B5-Asp-Asp-Ala-Ala-Phe-Asn-PyrS2-3Thi-BztA-[AzAc]Lys-NH2] | – | – | 46 µM (≈ 92.1 µg/mL) | – | – | – | chromatographic logD (CHI Log D procedure; pH 7.4): 2.09; IC50 ([1]; FP EC50 (nM), fluorescence polarization, beta-catenin): 6 nM
CC(=O)N1CCC[C@]12CC=CCCCC1(CCCC=CCCCCCC[C@@](C)(C(=O)N[C@@H](Cc3ccccc3)C(=O)N[C@@H](Cc3csc4ccccc34)C(N)=O)NC(=O)[C@H](CC(N)=O)NC(=O)[C@H](Cc3ccccc3)NC(=O)[C@H](C)NC(=O)[C@H](C)NC(=O)[C@H](CCC(=O)O)NC(=O)[C@H](CC(=O)O)NC1=O)NC(=O)[C@H](C)NC(=O)[C@H](CC(=O)O)NC2=O (stereo partly drawn) [I-432, Ac-PL3-Asp-Ala-B5-Asp-Glu-Ala-Ala-Phe-Asn-S8-Phe-BztA-NH2] | – | – | – | 145 nM | – | 2.23 | Solubility (Solubility in PBS; Solubility (uM)): 23 µM (≈ 39.1 µg/mL)
CC(=O)N1CCC[C@]12CC=CCCCC1(CCCC=CCCCCCC[C@@](C)(C(=O)N[C@@H](Cc3ccsc3)C(=O)N[C@@H](Cc3csc4ccccc34)C(=O)N[C@@H](CCC(N)=O)C(N)=O)NC(=O)[C@H](CC(N)=O)NC(=O)[C@H](Cc3ccccc3)NC(=O)[C@H](C)NC(=O)[C@H](C)NC(=O)[C@H](CN(CC(=O)O)CC(F)(F)F)NC(=O)[C@H](CC(=O)O)NC1=O)NC(=O)[C@H](CC1CCCCC1)NC(=O)[C@H](CC(=O)O)NC2=O (stereo partly drawn) [I-707, Ac-PL3-Asp-Cha-B5-Asp-TfeGA-Ala-Ala-Phe-Asn-S8-3Thi-BztA-Gln-NH2] | 2.963 | – | 48 µM (≈ 96.6 µg/mL) | 46 nM | 46 nM | – | –

Continued, in another order:

CHI Log D (CHI Log D procedure; pH 7.4) | IC50 ([1]; read-out: beta-Catenin FP IC50) | Solubility (Solubility in PBS) | IC50 [1, 3] | IC50 ([1]; read-out: FP EC50) | chromatographic logD (CHI Log D procedure; pH 7.4, CHI Log D) | Structure (SMILES) | also measured
2.113 | 920 nM | 10 µM (≈ 19.2 µg/mL) | – | – | – | CC(=O)N1CCC[C@]12CC=CCCCC1(CCCC=CCCCOC(=O)N3CC[C@@](C(=O)N[C@@H](Cc4ccccc4Cl)C(=O)N[C@@H](Cc4csc5ccccc45)C(=O)N[C@H](C(N)=O)[C@@H](C)O)(C3)NC(=O)[C@H](CC(C)C)NC(=O)[C@H](Cc3ccccc3)NC(=O)[C@H](C)NC(=O)[C@H](C)NC(=O)[C@H](CC(=O)O)NC(=O)[C@H](CC(=O)O)NC1=O)NC(=O)[C@H](CC(C)(C)C)NC(=O)[C@H](CC(=O)O)NC2=O (stereo partly drawn) [I-1069, Ac-PL3-Asp-Npg-B5-Asp-Asp-Ala-Ala-Phe-Leu-PyrS2-2C1F-BztA-Thr-NH2] | IC50 [1, 2]: 920 nM
– | 87 nM | 10 µM (≈ 20.7 µg/mL) | – | – | 2.1 | CC(=O)N1CCC[C@]12CC=CCCCC1(CCCC=CCCCOC(=O)N3CC[C@@](C(=O)N[C@@H](Cc4ccc(O)cc4)C(=O)N[C@@H](Cc4csc5ccccc45)C(=O)N[C@@H](CCC(N)=O)C(N)=O)(C3)NC(=O)[C@H](Cc3ccccc3)NC(=O)[C@H](Cc3ccccc3)NC(=O)[C@H](C)NC(=O)[C@H](C)NC(=O)[C@H](CN(CC(=O)O)CC(F)(F)F)NC(=O)[C@H](CC(=O)O)NC1=O)NC(=O)[C@H](CC(C)(C)C)NC(=O)[C@H](CC(=O)O)NC2=O (stereo partly drawn) [I-989, Ac-PL3-Asp-Npg-B5-Asp-TfeGA-Ala-Ala-Phe-Phe-PyrS2-Tyr-BztA-Gln-NH2] | –
1.71 | 228 nM | 49 µM (≈ 94.1 µg/mL) | – | 228 nM | – | CC(=O)N1CCC[C@]12CC=CCCCC1(CCCC=CCOC(=O)N(C)CCC[C@@](C)(C(=O)N[C@@H](Cc3ccsc3)C(=O)N[C@@H](Cc3csc4ccccc34)C(=O)N[C@@H](CCC(N)=O)C(N)=O)NC(=O)[C@H](CC(N)=O)NC(=O)[C@H](Cc3ccccc3)NC(=O)[C@H](C)NC(=O)[C@H](C)NC(=O)[C@H](CC(=O)O)NC(=O)[C@H](CC(=O)O)NC1=O)NC(=O)[C@H](CC(C)(C)C)NC(=O)[C@H](CC(=O)O)NC2=O (stereo partly drawn) [I-765, Ac-PL3-Asp-Npg-B5-Asp-Asp-Ala-Ala-Phe-Asn-SeN-3Thi-BztA-Gln-NH2] | –
2.137 | 5 nM | 41 µM (≈ 79.6 µg/mL) | – | – | – | CC(=O)N1CCC[C@]12CC=CCCCC1(CCCC=CCCCCOC(=O)N3CC[C@@](C(=O)N[C@@H](Cc4ccsc4)C(=O)N[C@@H](Cc4csc5ccccc45)C(=O)N[C@@H](Cc4c[nH]cn4)C(N)=O)(C3)NC(=O)[C@H](CC(N)=O)NC(=O)[C@H](Cc3ccccc3)NC(=O)[C@H](C)NC(=O)[C@H](C)NC(=O)[C@H](CC(=O)O)NC(=O)[C@H](CC(=O)O)NC1=O)NC(=O)[C@H](CC(C)(C)C)NC(=O)[C@H](CC(=O)O)NC2=O (stereo partly drawn) [I-776, Ac-PL3-Asp-Npg-B5-Asp-Asp-Ala-Ala-Phe-Asn-PyrS3-3Thi-BztA-His-NH2] | –
1.831 | 409 nM | 31 µM (≈ 59.7 µg/mL) | – | – | – | CC(=O)N1CCC[C@]12CC=CCCCC1(CCCC=CCCCOC(=O)N3CC[C@@](C(=O)N[C@@H](Cc4ccccc4)C(=O)N[C@@H](Cc4csc5ccccc45)C(=O)N[C@@H](CCC(N)=O)C(N)=O)(C3)NC(=O)[C@H](CC(C)C)NC(=O)[C@H](Cc3ccccc3)NC(=O)[C@H](C)NC(=O)[C@H](C)NC(=O)[C@H](CCC(=O)O)NC(=O)[C@H](CC(=O)O)NC1=O)NC(=O)[C@H](CC(C)(C)C)NC(=O)[C@H](CC(=O)O)NC2=O (stereo partly drawn) [I-1073, Ac-PL3-Asp-Npg-B5-Asp-Glu-Ala-Ala-Phe-Leu-PyrS2-Phe-BztA-Gln-NH2] | IC50 [1, 2]: 409 nM
2.762 | – | 25 µM (≈ 43.5 µg/mL) | 60.5 nM | 60.5 nM | – | CC[C@H](C)[C@@H]1NC(=O)[C@H](CC(=O)O)NC(=O)[C@]2(CC=CCCCC3(CCCC=CCCCCCC[C@@](C)(C(=O)N[C@@H](Cc4ccccc4)C(=O)N[C@@H](Cc4csc5ccccc45)C(N)=O)NC(=O)[C@H](CC(N)=O)NC(=O)[C@H](Cc4ccccc4)NC(=O)[C@H](C)NC(=O)[C@H](C)NC(=O)[C@H](CCC(=O)O)NC(=O)[C@H](CC(=O)O)NC3=O)NC1=O)CCCN2C(C)=O (stereo partly drawn) [I-715, Ac-PL3-Asp-Ile-B5-Asp-Glu-Ala-Ala-Phe-Asn-S8-Phe-BztA-NH2] | –
